Test results: paper PMC11974063 (BMC Medicine, 2025)

Biological target: Influenza HA2 protein
Type: binding

SMILES: COCCOC(=O)C1=C(C)NC(C)=C(C(=O)OC/C=C/c2ccccc2)C1c1cccc([N+](=O)[O-])c1 (stereo not shown) [cilnidipine]
- Kd: 32 nM
